From patent US20250332173A1, “COMPOUNDS AND METHODS FOR MODULATING NUCLEIC ACID SPLICING” (REMIX THERAPEUTICS INC., priority 2021, published 2025)
Like-named read-outs stand apart in the source and are kept apart here.

Tests used:
Target C = test: RT-qPCR splicing assay panel, Target C canonical junction (CJ) mRNA; type: cell-based, human; details: Homo sapiens; Table 5 panel; canonical junction qPCR; compound concentration having 50% response in CJ decrease; read-out: Target C IC50 (decrease in CJ mRNA levels)
Method in brief: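 K562/A673 cells, 11-pt 3-fold compound titration from 10 uM final, DMSO ≤0.25%, 24 h 37 °C 5% CO2; lyse (DNase I or Igepal/Tris buffer pH 7.4); RT-qPCR for CJ isoform vs housekeeping gene (GAPDH/GUSB/PPIA).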

HTT mRNA = test: RT-qPCR splicing assay, HTT canonical junction (CJ) and alternative junction (AJ) mRNA; type: cell-based, human; details: Homo sapiens; for AC50: increase in HTT alternative junction (AJ) mRNA, read-out: HTT AJ AC50
Method in brief: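 Splicing switches were read by TaqMan RT-qPCR on lysates, quantifying exon-exon junctions of the canonical and alternative-exon isoforms. Lysates came from K562 (GAPDH/GUSB reference) or A673 (PPIA reference) cells exposed 24 h to compound in 11 threefold steps from 10 uM, with DMSO ≤0.25%.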

[1] = decrease in HTT canonical junction (CJ) mRNA, RT-qPCR, read-out: HTT CJ IC50
[2] = Table 5 panel, canonical junction qPCR, compound concentration having 50% response in CJ decrease, read-out: HTT IC50 (decrease in CJ mRNA levels)

Row | SMILES | IC50 (Target C) [µM] | IC50 (HTT mRNA; [1]) [µM] | AC50 (HTT mRNA; RT-qPCR) [µM] | IC50 (HTT mRNA; [2]) [µM]
1 | Cc1cn2cc(-c3cc(F)c4c(=O)n([C@H]5CNCC[C@@H]5O)cnc4c3)cc(F)c2n1 [Compound 348, 5-fluoro-7-{8-fluoro-2-methylimidazo[1,2-a]pyridin-6-yl}-3-[(3S,4S)-4-hydroxypiperidin-3-yl]quinazolin-4-one] | > 10 | > 10 | > 10 | > 10
2 | Cn1cc2cc(-c3cc(F)c4c(=O)n(C5CCNCC5)cnc4c3)cc(F)c2n1 [Compound 314] | > 10 | 1 to 10 | 1 to 10 | 1 to 10
3 | Cc1cn2cc(-c3cc(F)c4c(=O)n(C5=CCNCC5)cnc4c3)cc(F)c2n1 [Compound 342] | 0.1 to 1 | 0.1 to 1 | < 0.1 | < 0.1
4 | Cc1cc(-c2ccc3c(=O)n(C4CCN(C)CC4)cnc3c2)cc2cn(C)nc12 [Compound 156] |  | 1 to 10 | 1 to 10 | 1 to 10
5 | Cc1nc2c(F)cc(-c3ccc4c(=O)n(C5CCN(C)CC5)cnc4c3)cc2s1 [Compound 301] | 1 to 10 | 1 to 10 | 1 to 10 | 1 to 10
6 | Cc1cn2nc(-c3cc(N(C)C)c4c(=O)n(C5CCNC6(CC6)C5)cnc4c3)cc(C)c2n1 (centres unmarked) [Compound 345] | < 0.1 | < 0.1 | < 0.1 | < 0.1
7 | Cn1cc2cc(-n3cnc4cc(N5CCNCC5)ccc4c3=O)ccc2n1 [Compound 153] |  | > 10 | > 10 | > 10
8 | Cn1cc2cc(-c3cc(F)c4c(=O)n(C5CCNCC5)cnc4c3)c(F)cc2n1 [Compound 315] | 1 to 10 | 1 to 10 | 1 to 10 | 1 to 10
9 | Cc1cn2cc(-c3cc(F)c4c(=O)n(C5CNCCC5=O)cnc4c3)cc(F)c2n1 (centres unmarked) [Compound 352, 5-fluoro-7-{8-fluoro-2-methylimidazo[1,2-a]pyridin-6-yl}-3-(4-oxopiperidin-3-yl)quinazolin-4-one] | > 10 | > 10 | > 10 | > 10
10 | Cc1cn2nc(-c3ccc4c(=O)n([C@@H]5CCNC6(CC6)C5)cnc4c3)cc(C)c2n1 [Compound 350, 3-[(7R)-4-azaspiro[2.5]octan-7-yl]-7-{2,8-dimethylimidazo[1,2-b]pyridazin-6-yl}quinazolin-4-one] | 0.1 to 1 | < 0.1 | < 0.1 | < 0.1
11 | CNc1cc(-c2cc(C#N)c3nc(C)cn3c2)cc2ncn(C3CCNCC3)c(=O)c12 [Compound 363, 2-methyl-6-[5-(methylamino)-4-oxo-3-(piperidin-4-yl)quinazolin-7-yl]imidazo[1,2-a]pyridine-8-carbonitrile] | > 10 | > 10 | > 10 | > 10
12 | Cc1cn2nc(-c3ccc4c(=O)n(C5CCCNCC5)ncc4c3)cc(C)c2n1 (centres unmarked) [Compound 283] | 0.1 to 1 | 0.1 to 1 | 0.1 to 1 | 0.1 to 1
13 | CN1CCN(c2ccc3c(=O)n(-c4ccc5nn(C)cc5c4)cnc3c2)CC1 [Compound 152] | > 10 | > 10 | > 10 | > 10
14 | Cc1cc(-c2cnc3c(=O)n(C4CCNCC4)cnc3c2)cc2cn(C)nc12 [Compound 311] | 1 to 10 | 1 to 10 | 1 to 10 | 1 to 10
15 | Cc1cn2nc(-c3cc(F)c4c(=O)n(C5CCNCC5)cnc4c3)cc2c(C)n1 [Compound 318] | 0.1 to 1 | < 0.1 | < 0.1 | < 0.1
16 | Cc1cn2cc(-c3ccc4c(=O)n(C5CCNCC5)cnc4c3)cc(Cl)c2n1 [Compound 291] | 0.1 to 1 | 0.1 to 1 | 0.1 to 1 | 0.1 to 1
17 | Cc1cc(-c2ccc3c(=O)n(C4CC(C)(C)NC(C)(C)C4)cnc3c2)cc2cn(C)nc12 [Compound 157] |  | > 10 | > 10 | > 10
18 | Cc1cn2nc(-c3cc(F)c4c(=O)n(C5CCNC6(CC6)C5)ncc4c3)cc(C)c2n1 (centres unmarked) [Compound 312] | < 0.1 | < 0.1 | < 0.1 | < 0.1
19 | Cc1cn2cc(-c3ccc4c(=O)n([C@@H]5CCN[C@@H](C)C5)cnc4c3)cc(F)c2n1 [Compound 293] | 1 to 10 | 1 to 10 | 0.1 to 1 | 0.1 to 1
20 | Cc1cn2nc(-c3ccc4c(=O)n([C@H]5CCNC6(CC6)C5)cnc4c3)cc(C)c2n1 [Compound 349, 3-[(7S)-4-azaspiro[2.5]octan-7-yl]-7-{2,8-dimethylimidazo[1,2-b]pyridazin-6-yl}quinazolin-4-one] | 1 to 10 | 0.1 to 1 | 0.1 to 1 | 0.1 to 1

Row | SMILES | IC50 (Target C) [µM] | IC50 (HTT mRNA; [1]) [µM] | AC50 (HTT mRNA; RT-qPCR) [µM] | IC50 (HTT mRNA; [2]) [µM]
21 | CCN1CCC(n2ncc3cc(-c4cc(C)c5nc(C)cn5n4)ccc3c2=O)CC1 [Compound 266] | 0.1 to 1 | < 0.1 | < 0.1 | < 0.1
22 | Cc1cn2cc(-c3cc(F)c4c(=O)n([C@H]5CCN[C@@H](C)C5)cnc4c3)cc(F)c2n1 (relative stereo) [Compound 343, cis-5-fluoro-7-(8-fluoro-2-methylimidazo[1,2-a]pyridin-6-yl)-3-(2-methylpiperidin-4-yl)quinazolin-4(3H)-one] | 0.1 to 1 | 0.1 to 1 | 0.1 to 1 | 0.1 to 1
23 | Cc1cn2cc(-c3ccc4c(=O)n(C5CCN(C)CC5)cnc4c3)nc2c(C)n1 [Compound 302] | 1 to 10 | 1 to 10 | 1 to 10 | 1 to 10
24 | Cc1ncc(-c2ccc3c(=O)n(C4CCNCC4)cnc3c2)cn1 [Compound 354, 7-(2-methylpyrimidin-5-yl)-3-(piperidin-4-yl)quinazolin-4(3H)-one] | 1 to 10 | 1 to 10 | 1 to 10 | 1 to 10
25 | Cc1cn2nc(-c3ccc4c(=O)n(C5CCNCC5)cnc4c3)nc2c(C)n1 [Compound 287, 7-{6,8-dimethyl-[1,2,4]triazolo[1,5-a]pyrazin-2-yl}-3-(piperidin-4-yl)quinazolin-4-one] | 0.1 to 1 | 0.1 to 1 | 0.1 to 1 | 0.1 to 1
26 | Cc1cn2nc(-c3cc(C)c4c(=O)n(C5CCNCC5)cnc4c3)cc(C)c2n1 [Compound 355] | 0.1 to 1 | < 0.1 | 0.1 to 1 | 0.1 to 1
27 | Cc1cn2nc(-c3ccc4c(=O)n(C5CCNCC5)cnc4c3)cc2c(C)n1 [Compound 298] | 1 to 10 | 0.1 to 1 | 0.1 to 1 | 0.1 to 1
28 | O=c1c2ccc(-c3cn[nH]c3)cc2ncn1C1CCNCC1 [Compound 284] | > 10 | > 10 | > 10 | > 10
29 | COc1cc(-c2cc(F)c3c(=O)n(C4CCNCC4)cnc3c2)cnn1 [Compound 320] | > 10 | > 10 | > 10 | > 10
30 | Cc1cn2nc(-c3ccc4c(c3)CCN(C3CCNC(C)(C)C3)C4=O)cc(C)c2n1 (centres unmarked) [Compound 267] | 1 to 10 | 0.1 to 1 | 1 to 10 | 1 to 10
31 | Cc1cn2cc(-c3cc(F)c4c(=O)n(N5CCNCC5)cnc4c3)cc(F)c2n1 [Compound 340, 5-fluoro-7-{8-fluoro-2-methylimidazo[1,2-a]pyridin-6-yl}-3-(piperazin-1-yl)quinazolin-4-one] | 0.1 to 1 | 0.1 to 1 | 0.1 to 1 | 0.1 to 1
32 | Cc1cn2cc(-c3ccc4c(=O)n(C5CCN(C)CC5)cnc4c3)ncc2n1 [Compound 308] | 1 to 10 | 1 to 10 | 1 to 10 | 1 to 10
33 | Cc1cn2cc(-c3cc(F)c4c(=O)n(C5CCNCC5)cnc4c3)cc(C)c2n1 [Compound 317] | 0.1 to 1 | 0.1 to 1 | 0.1 to 1 | 0.1 to 1
34 | Cc1cn2cc(-c3cc(F)c4c(=O)n([C@H]5CCNC[C@H]5F)cnc4c3)cc(F)c2n1 [Compound 338] | 1 to 10 | 1 to 10 | 0.1 to 1 | 0.1 to 1
35 | CN1CC=C(c2ccc3c(=O)n(-c4ccc5nn(C)cc5c4)cnc3c2)CC1 [Compound 159] |  | > 10 | > 10 | > 10
36 | Cc1cn2nc(-c3cc(F)c4c(=O)n(C5CCNCC5)ccc4c3)cc(C)c2n1 [Compound 322] | < 0.1 | < 0.1 | < 0.1 | < 0.1
37 | Cc1cn2nc(-c3ccc4c(=O)n([C@H]5CCN(C)[C@H](C)C5)ncc4c3)cc(C)c2n1 [Compound 278] | 0.1 to 1 | < 0.1 | < 0.1 | < 0.1
38 | Cc1cn2cc(-c3cc(F)c4c(=O)n(C5CCCNCC5)cnc4c3)cc(F)c2n1 (centres unmarked) [Compound 353, 3-(azepan-4-yl)-5-fluoro-7-{8-fluoro-2-methylimidazo[1,2-a]pyridin-6-yl}quinazolin-4-one] | 1 to 10 | 0.1 to 1 | 0.1 to 1 | 0.1 to 1
39 | Cc1cn2cc(-c3ccc4c(=O)n(C5CCNCC5)cnc4c3)nc2c(C)n1 [Compound 286] | 1 to 10 | 1 to 10 | 1 to 10 | 1 to 10
40 | Cn1cc2cc(-n3cnc4cc(C5=CCNCC5)ccc4c3=O)ccc2n1 [Compound 158] |  | > 10 | > 10 | > 10
